PubChem BioAssay (NCI)
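Abbreviation: GI50, concentration required for 50% inhibition of growth. The concentration for full growth arrest is given as TGI.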

Assays:
Experiment in all cases: NCI-60 cell line screen, 384-well format
[1] = system: 786-0 renal
[2] = system: A498 renal
[3] = system: A549 NSCLC
[4] = system: ACHN renal
[5] = system: BT-549 breast
[6] = system: CAKI-1 renal
[7] = system: COLO 205 colon
[8] = system: DU-145 prostate
[9] = system: EKVX NSCLC
[10] = system: HCC-2998 colon
[11] = system: HCT-116 colon
[12] = system: HCT-15 colon
[13] = system: HL-60(TB) leukemia
[14] = system: HOP-62 NSCLC
[15] = system: HOP-92 NSCLC
[16] = system: HS 578T breast
[17] = system: HT29 colon
[18] = system: IGROV1 ovarian
[19] = system: KM12 colon
[20] = system: LOX IMVI melanoma
[21] = system: M14 melanoma
[22] = system: MALME-3M melanoma
[23] = system: MCF7 breast
[24] = system: MDA-MB-231 breast
[25] = system: MDA-MB-435 melanoma
[26] = system: MDA-MB-468 breast
[27] = system: MOLT-4 leukemia
[28] = system: NCI-H226 lung
[29] = system: NCI-H23 lung
[30] = system: NCI-H322M lung
[31] = system: NCI-H460 NSCLC
[32] = system: NCI-H522 lung
[33] = system: NCI/ADR-RES ovarian
[34] = system: OVCAR-3 ovarian
[35] = system: OVCAR-4 ovarian
[36] = system: OVCAR-5 ovarian
[37] = system: OVCAR-8 ovarian
[38] = system: PC-3 prostate
[39] = system: RPMI-8226 leukemia
[40] = system: RXF 393 renal
[41] = system: SF-268 CNS
[42] = system: SF-295 CNS
[43] = system: SF-539 CNS
[44] = system: SK-MEL-28 melanoma
[45] = system: SK-MEL-5 melanoma
[46] = system: SK-OV-3 ovarian
[47] = system: SN12C renal
[48] = system: SNB-19 CNS
[49] = system: SNB-75 CNS
[50] = system: SR leukemia
[51] = system: SW-620 colon
[52] = system: T-47D breast
[53] = system: TK-10 renal
[54] = system: U251 glioblastoma
[55] = system: UACC-257 melanoma
[56] = system: UACC-62 melanoma
[57] = system: UO-31 renal

For `Cc1ccc(C(=O)Nc2ccc(CN3CCN(C)CC3)c(C(F)(F)F)c2)cc1C#Cc1cnc2cccnn12`, the GI50 [1] was 339 nM, the TGI [1] was 1060 nM and the GI50 [2] was 390 nM. It also gave a TGI [2] of 1310 nM, a GI50 [3] of 361 nM and a TGI [3] of 1250 nM. It also gave a GI50 [4] of 210 nM, a TGI [4] of 685 nM and a GI50 [5] of 309 nM. For the same molecule, the TGI [5] was 1000 nM, the GI50 [6] was 210 nM and the TGI [6] was 504 nM. It also gave a GI50 [7] of 348 nM, a TGI [7] of 1440 nM and a GI50 [8] of 345 nM. The TGI [8] was 1190 nM, the GI50 [9] was 574 nM and the TGI [9] was 1780 nM. It also gave a GI50 [10] of 500 nM, a TGI [10] of 1290 nM and a GI50 [11] of 193 nM. For the same molecule, the TGI [11] was 541 nM, the GI50 [12] was 265 nM and the TGI [12] was 1020 nM. The GI50 [13] was 163 nM, the TGI [13] was 320 nM and the GI50 [14] was 403 nM. For the same molecule, the TGI [14] was 1380 nM, the GI50 [15] was 249 nM and the TGI [15] was 580 nM. For the same molecule, the GI50 [16] was 107 nM, the TGI [16] was 290 nM and the GI50 [17] was 221 nM. For the same molecule, the TGI [17] was 607 nM, the GI50 [18] was 180 nM and the TGI [18] was 558 nM. The GI50 [19] was 46 nM, the TGI [19] was 1380 nM and the GI50 [20] was 153 nM. The TGI [20] was 307 nM, the GI50 [21] was 167 nM and the TGI [21] was 573 nM. For the same molecule, the GI50 [22] was 104 nM, the TGI [22] was 226 nM and the GI50 [23] was 560 nM. It also gave a TGI [23] of 1830 nM, a GI50 [24] of 171 nM and a TGI [24] of 399 nM. It also gave a GI50 [25] of 425 nM, a TGI [25] of 1340 nM and a GI50 [26] of 563 nM. For the same molecule, the TGI [26] was 1580 nM, the GI50 [27] was 203 nM and the TGI [27] was 619 nM. The GI50 [28] was 47.6 nM, the TGI [28] was 240 nM and the GI50 [29] was 246 nM. For the same molecule, the TGI [29] was 797 nM, the GI50 [30] was 275 nM and the TGI [30] was 692 nM. It also gave a GI50 [31] of 396 nM, a TGI [31] of 1510 nM and a GI50 [32] of 147 nM. It also gave a TGI [32] of 582 nM, a GI50 [33] of 315 nM and a TGI [33] of 1000 nM. The GI50 [34] was 374 nM, the TGI [34] was 1370 nM and the GI50 [35] was 538 nM. The TGI [35] was 1820 nM, the GI50 [36] was 516 nM and the TGI [36] was 1680 nM. For the same molecule, the GI50 [37] was 344 nM, the TGI [37] was 1220 nM and the GI50 [38] was 872 nM. The TGI [38] was 2070 nM, the GI50 [39] was 288 nM and the TGI [39] was 760 nM. The GI50 [40] was 284 nM, the TGI [40] was 621 nM and the GI50 [41] was 222 nM. The TGI [41] was 844 nM, the GI50 [42] was 1080 nM and the TGI [42] was 2270 nM. The GI50 [43] was 109 nM, the TGI [43] was 245 nM and the GI50 [44] was 362 nM. It also gave a TGI [44] of 1270 nM, a GI50 [45] of 170 nM and a TGI [45] of 373 nM. The GI50 [46] was 297 nM, the TGI [46] was 1210 nM and the GI50 [47] was 324 nM. For the same molecule, the TGI [47] was 1100 nM, the GI50 [48] was 1270 nM and the TGI [48] was 2560 nM. For the same molecule, the GI50 [49] was 217 nM, the TGI [49] was 790 nM and the GI50 [50] was 521 nM. For the same molecule, the TGI [50] was 801 nM, the GI50 [51] was 399 nM and the TGI [51] was 1480 nM. The GI50 [52] was 608 nM, the TGI [52] was 1810 nM and the GI50 [53] was 737 nM. The TGI [53] was 1970 nM, the GI50 [54] was 492 nM and the TGI [54] was 1610 nM. For the same molecule, the GI50 [55] was 222 nM, the TGI [55] was 419 nM and the GI50 [56] was 144 nM. It also gave a TGI [56] of 745 nM, a GI50 [57] of 392 nM and a TGI [57] of 1150 nM.
